From patent US20050153967A1, “Pharmaceutical compositions comprising 2-(4-ethoxy-phenyl)-3-(4-methanesulfonyl-phenyl)-pyrazolo'1,5-bipyridazine in nanoparticulate form” (priority 2002, published 2005)

Experiments:
[1] = Dissolution testing (in vitro prediction of bioavailability); assay type: physicochemical
Excerpt: Dissolution testing is a well established technique for obtaining a correlation between in vitro and in vivo data in relation to compound bioavailability. […] As a result attempts were made to improve the bioavailability of compound (I). WO01/41760 (Pharmacia Corporation) discloses that the bioavailability of selective COX-2 inhibitory drugs of low water solubility may be enhanced by reducing the drug particle size, such that a substantial proportion are smaller than 1 μm.

cyclooxygenase-2 (COX-2) = molecular target: T1, cyclooxygenase-2 (COX-2) (Homo sapiens, UniProt P35354); conditions: cited from earlier work
T1 sequence (P35354 18-604): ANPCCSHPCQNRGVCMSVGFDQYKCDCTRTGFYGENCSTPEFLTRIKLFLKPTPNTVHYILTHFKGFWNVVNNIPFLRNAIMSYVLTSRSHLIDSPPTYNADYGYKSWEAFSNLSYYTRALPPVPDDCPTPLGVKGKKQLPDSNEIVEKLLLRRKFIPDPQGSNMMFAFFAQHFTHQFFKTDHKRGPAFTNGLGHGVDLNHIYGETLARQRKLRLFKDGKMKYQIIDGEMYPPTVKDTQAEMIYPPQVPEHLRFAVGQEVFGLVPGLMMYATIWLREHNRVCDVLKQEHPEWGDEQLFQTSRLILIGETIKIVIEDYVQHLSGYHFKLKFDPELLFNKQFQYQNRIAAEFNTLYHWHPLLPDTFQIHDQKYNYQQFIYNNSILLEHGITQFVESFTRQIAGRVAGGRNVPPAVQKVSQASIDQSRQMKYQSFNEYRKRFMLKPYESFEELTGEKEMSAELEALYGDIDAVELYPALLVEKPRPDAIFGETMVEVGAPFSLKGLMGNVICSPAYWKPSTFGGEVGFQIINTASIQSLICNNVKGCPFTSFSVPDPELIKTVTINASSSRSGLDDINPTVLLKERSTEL

dissolution, indicated bioavailability ([1]; co-formulation with HPMC-AS in an amorphous dispersion): enhanced | dissolution, predicted bioavailability ([1]; compound (I) in micronised form, preliminary dissolution experiments): poorly bioavailable | dissolution profile ([1]; pharmaceutical composition with compound (I) in nanoparticulate form): poor dissolution profile
Compound: CCOc1ccc(-c2nn3ncccc3c2-c2ccc(S(C)(=O)=O)cc2)cc1 [compound (I), 2-(4-ethoxy-phenyl)-3-(4-methanesulfonyl-phenyl)-pyrazolo[1,5-b]pyridazine]
inhibition of cyclooxygenase-2 (COX-2) (cyclooxygenase-2 (COX-2)): potent and selective inhibitor
